In patent US6998394B2, “Process for isolating physalins from plants and pharmaceutical compositions containing physalins” (Fundacao Oswaldo Cruz - FIOCRUZ, priority 1999, dated 2006):
Converted amounts (≈) assume the structure as drawn.

What was measured:
[1] = system: trypomastigotes of Trypanosoma cruzi (Y strain); experiment: In vitro antitrypanosomial activity against T. cruzi trypomastigotes (count of viable parasites); type: cell-based
Method: In vitro studies using pure physalins are carried out with trypomastigotes of Trypanosoma cruzi.
T. cruzi Y strain is maintained in MK2 strain cell culture in a RPMI medium+10% bovine fetal serum, at 37° C., under 5% CO2. This material is centrifuged during 15 minutes at 1500 rpm. Afterwards, the material is maintained in rest at 37° C. for 2 hours. The supernatant is centrifuged again during 30 minutes at 3000 rpm. The trypomastigotes (5×10^5/well) in RPMI medium with 10% bovine fetal serum and antibiotic are incubated in wells with different concentrations of physalin B or physalin D. After 24–48 hours, the viable parasites maintained at a temperature of 4° C. are counted. Each experiment was carried out in triplicate.

[2] = system: TNFα production by macrophages; experiment: TNFα production by LPS-stimulated peritoneal macrophages (ELISA); type: cell-based; conditions: LPS 500 ng/ml, various concentrations, supernatants 4 hours after stimulation, FIG. 3A
Method: (§1) In a first test, thyoglycollate-elicited peritoneal macrophages were stimulated with LPS (500 ng/ml) in the presence of various concentrations of physalin B. Cell-free supernatants were collected 4 hours after stimulation and tested for TNα and IL-6 production by ELISA.

[3] = system: nitric oxide production by macrophages; experiment: Nitric oxide (nitrite) production by stimulated peritoneal macrophages (Griess assay); type: cell-based; conditions: 24 hours
Method: In a second test, thyoglycollate-elicited peritoneal macrophages were stimulated with LPS (500 ng/ml), IFNγ (5 ng/ml), or IFNγ +LPS in the presence of various concentrations of physalin B. Cell-free supernatants were collected 24 hours after stimulation and tested for nitrite production by Griess assay.
In a third test, thyoglycollate-elicited peritoneal macrophages were stimulated with LPS (500 ng/ml)+IFNγ (5 ng/ml). Physalin B (2 μg/ml) was added 0, 2, 4 and 6 hours after IFNγ+LPS stimulation. Cell-free supernatants were collected 24 hours after stimulation and tested for nitrite production by Griess assay. IFNγ+LPS was used as control.
In a fourth test, thyoglycollate-elicited peritoneal macrophages were stimulated with LPS (500 ng/ml)+IFNγ (5 ng/ml) in the presence of physalin B (2 μg/ml) or indomethacyn (1 μg/ml). Cell-free supernatants were collected 24 hours after stimulation and tested for nitrite production by Griess assay.

[4] = system: Leishmania amazonensis in peritoneal macrophages; experiment: In vitro infection assay using peritoneal macrophages infected with Leishmania amazonensis; type: cell-based; conditions: 10 μg/ml
Method: Peritoneal macrophages were incubated during 2 hours at 37° C. in 24 wells plates with laminas. After washing to remove non-bound cells, the wells were incubated with stationary phase promastigotes of Leishmania amazonensis (parasites/macrophages in a ratio of 10:1). After 18 hours, the cultures were washed to remove the free parasites. After 24 hours, physalin B solution is added to the wells. The laminas are collected, fixed with methanol and dyed with Giemsa. The infection level was determined by counting parasite quantity and the infected macrophages percentage.

[5] = system: BALB/c spleen cells or thyoglycollate-elicited peritoneal macrophages; experiment: Viability of spleen cells and peritoneal macrophages (MTT); type: cell-based; conditions: one day or three days of culturing, FIG. 9
Method: In the last test, BALB/c spleen cells or thyoglycollate-elicited peritoneal macrophages were cultured in the presence of several concentrations of physalin B. After one day (FIG. 9B) or three days (FIG. 9A) of culturing, plates were pulsed with MTT. Cell-viability was evaluated 2 hours later by optical density measuring at 570 nm.

[6] = system: IL-6 production by macrophages; experiment: IL-6 production by LPS-stimulated peritoneal macrophages (ELISA); type: cell-based; conditions: LPS 500 ng/ml, various concentrations, supernatants 4 hours after stimulation, FIG. 3B
Method: as §1

[7] = system: ConA stimulated splenocytes; experiment: Proliferation of ConA-stimulated splenocytes (3H thymidine uptake); type: cell-based, BALB/c; conditions: ConA 1 μg/ml, several concentrations, FIG. 7
Method: In a fifth test, BALB/c spleen cells were stimulated with ConA (1 μg/ml) in the presence of several concentrations of physalin B. After 24 hours, cultures were pulsed with ^3H thymidine. Proliferation was assessed by measurement of thymidine uptake.

[8] = system: promastigotes of Leishmania amazonensis; experiment: In vitro antileishmanicidal activity on promastigotes (MTT viability); type: cell-based; conditions: 20 μg/ml
Method: Stationary phase promastigotes of Leishmania amazonensis were obtained from parasite cultures in LIT medium with 10% bovine fetal serum. The assays were standardized in plates with 96 wells. Promastigotes were plaque harbored, in triplicate, in 100 μl of LIT medium. 10 μl of physalin B solution and 10 μl of a positive control (Amphotericin B) are added to the wells. Several dilutions were used. Parasite viability was determined after incubation with MTT by reading the absorbance at 570 nm in ELISA Microplate.

[9] = system: IL-2 production by ConA stimulated splenocytes; experiment: IL-2 production by ConA-stimulated splenocytes (ELISA); type: cell-based, BALB/c; conditions: ConA 1 μg/ml, several concentrations, 24 hours, FIG. 8
Method: In a sixth test, BALB/c spleen cells were stimulated with ConA (1 μg/ml) in the presence of several concentrations of physalin B. Cell-free supernatants were collected 24 hours after stimulation and tested for IL-2 production by ELISA.

[10] = system: human tumors like hepatoma, cervix uteri, lung and colon cells; conditions: in vivo and in vitro tests; cited from earlier work
[11] = system: Trypanosoma brucei rhodesiense; conditions: commonly used trypanocidal drug; cited from earlier work

C[C@]12C(=O)C=CCC1=CC[C@@H]1[C@@H]2CC[C@]2(O)C(=O)O[C@@]3(C)[C@H]4C[C@]5(C)[C@@H](CO[C@@]16O[C@@]32[C@H]5C6=O)C(=O)O4 [Physalin B]
Mortality of Parasite (%) ([1]; dose 2.5 mg/ml, contact period 24 hours): 100%
Mortality of Parasite (%) ([1]; dose 2.5 mg/ml, contact period 48 hours): 100%
TNFα production by macrophages [2]: inhibitory properties
nitric oxide production, physalin B added at different times ([3]; 2 μg/ml added 0, 2, 4 and 6 hours after IFNγ+LPS stimulation, FIG. 5): time-dependence of the inhibition
nitric oxide production by macrophages ([3]; LPS 500 ng/ml, IFNγ 5 ng/ml or IFNγ+LPS, various concentrations, FIG. 4): inhibitory properties
nitric oxide production in the presence of indomethacyn ([3]; LPS+IFNγ, physalin B 2 μg/ml, indomethacyn 1 μg/ml, FIG. 6): addition of indomethacyn does not block the inhibition
in vitro reduction in the infection of peritoneal macrophages [4]: 100%
concentrations at which non-toxic in vitro (cell viability, MTT) [5]: below 5 μg/ml
IL-6 production by macrophages [6]: inhibitory properties
proliferation of ConA stimulated splenocytes (thymidine uptake) [7]: inhibits proliferation
parasite mortality [8]: 100%
IL-2 production by ConA stimulated splenocytes [9]: inhibits IL-2 production

C[C@@]12C[C@H]3OC(=O)[C@@H]1CO[C@@]14O[C@]5([C@H]2C1=O)[C@@](O)(CC[C@H]1[C@H]4C[C@@H](O)[C@@]2(O)CC=CC(=O)[C@]12C)C(=O)O[C@@]35C [Physalin D]
Mortality of Parasite (%) ([1]; dose 40 μg/ml, contact period 24 hours): 100%
Mortality of Parasite (%) ([1]; dose 40 μg/ml, contact period 48 hours): 100%
activity against human tumors [10]: active

C=C1C(=O)O[C@@H]2C[C@@]1(C)[C@@H]1C(=O)[C@]3(O)O[C@]14[C@@]2(C)OC(=O)[C@@]4(O)CC[C@H]1[C@H]3[C@H](O)C=C2CC=CC(=O)[C@@]21C [physalin A]
activity against human tumors [10]: active

C[C@@]12C[C@H]3OC(=O)[C@@H]1CO[C@]14O[C@]5([C@H]2C1=O)[C@@](O)(CC[C@H]1[C@H]4C[C@H]2O[C@]24CC=CC(=O)[C@]14C)C(=O)O[C@@]35C [physalin F]
activity against human tumors [10]: active

C[C@@H]1C(=O)O[C@@H]2C[C@@]1(C)C1C(=O)[C@]3(O)O[C@@]14[C@@](O)(CCC1C3[C@H](O)C=C3C=CCC(=O)[C@@]31C)C(=O)O[C@@]24C (stereo partly shown) [physalin L]
activity against human tumors [10]: active

Cc1ccc(C(=O)Nc2ccc(S(=O)(=O)O)c3cc(S(=O)(=O)O)cc(S(=O)(=O)O)c23)cc1NC(=O)c1cccc(NC(=O)Nc2cccc(C(=O)Nc3cc(C(=O)Nc4ccc(S(=O)(=O)O)c5cc(S(=O)(=O)O)cc(S(=O)(=O)O)c45)ccc3C)c2)c1 [suramin]
IC50 [11]: 0.0107 µg/mL (≈ 8.25 nM)
